Measurements published in US20240307382A1, “MODULATORS OF THE INTEGRATED STRESS PATHWAY” (Calico Life Sciences LLC, priority 2017, published 2024).

System: HEK293T cells carrying the ATF4 luciferase reporter
Test: ATF4-Luc assay (ATF4 luciferase reporter, tunicamycin-treated cells)
Format: cell-based
Details: Homo sapiens, HEK-293T, 1 μg/mL tunicamycin, 7 hours
How it was run: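 A stable HEK293T reporter line was made by placing the full-length human ATF4 5′-UTR ahead of a firefly luciferase sequence without its start methionine, delivered by retroviral transduction and puromycin selection. Cells were seeded at 30,000 per well in polylysine-coated 384-well plates, exposed next day to 1 μg/mL tunicamycin plus compound for 7 hours, and luminescence was read with One Glo.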

| Structure (SMILES) | EC50 [nM] |
| --- | --- |
| Cc1nn(C)cc1C(=O)NC12CCC(NC(=O)COc3ccc(Cl)c(F)c3)(CC1)[C@@H](O)C2 [Compound 1108, N-{(3S)-4-[2-(4-chloro-3-fluorophenoxy)acetamido]-3-hydroxybicyclo[2.2.2]octan-1-yl}-1,3-dimethyl-1H-pyrazole-4-carboxamide] | 50 to 250 |
| O=C(COc1ccc(Cl)c(F)c1)NC12CCC(NC(=O)c3cc4cc(Cl)ccc4o3)(CC1)[C@@H](O)C2 [Compound 1109, 5-chloro-N-{(2S)-4-[2-(4-chloro-3-fluorophenoxy)acetamido]-2-hydroxybicyclo[2.2.2]octan-1-yl}-1-benzofuran-2-carboxamide] | < 50 |
